These results are taken from US20140113898A1, “BISARYLSULFONE AND DIALKYLARYLSULFONE COMPOUNDS AS CALCIUM CHANNEL BLOCKERS” (Zalicus Pharmaceuticals Ltd., priority 2010, published 2014).

T1 sequence (Q00975 whole entry): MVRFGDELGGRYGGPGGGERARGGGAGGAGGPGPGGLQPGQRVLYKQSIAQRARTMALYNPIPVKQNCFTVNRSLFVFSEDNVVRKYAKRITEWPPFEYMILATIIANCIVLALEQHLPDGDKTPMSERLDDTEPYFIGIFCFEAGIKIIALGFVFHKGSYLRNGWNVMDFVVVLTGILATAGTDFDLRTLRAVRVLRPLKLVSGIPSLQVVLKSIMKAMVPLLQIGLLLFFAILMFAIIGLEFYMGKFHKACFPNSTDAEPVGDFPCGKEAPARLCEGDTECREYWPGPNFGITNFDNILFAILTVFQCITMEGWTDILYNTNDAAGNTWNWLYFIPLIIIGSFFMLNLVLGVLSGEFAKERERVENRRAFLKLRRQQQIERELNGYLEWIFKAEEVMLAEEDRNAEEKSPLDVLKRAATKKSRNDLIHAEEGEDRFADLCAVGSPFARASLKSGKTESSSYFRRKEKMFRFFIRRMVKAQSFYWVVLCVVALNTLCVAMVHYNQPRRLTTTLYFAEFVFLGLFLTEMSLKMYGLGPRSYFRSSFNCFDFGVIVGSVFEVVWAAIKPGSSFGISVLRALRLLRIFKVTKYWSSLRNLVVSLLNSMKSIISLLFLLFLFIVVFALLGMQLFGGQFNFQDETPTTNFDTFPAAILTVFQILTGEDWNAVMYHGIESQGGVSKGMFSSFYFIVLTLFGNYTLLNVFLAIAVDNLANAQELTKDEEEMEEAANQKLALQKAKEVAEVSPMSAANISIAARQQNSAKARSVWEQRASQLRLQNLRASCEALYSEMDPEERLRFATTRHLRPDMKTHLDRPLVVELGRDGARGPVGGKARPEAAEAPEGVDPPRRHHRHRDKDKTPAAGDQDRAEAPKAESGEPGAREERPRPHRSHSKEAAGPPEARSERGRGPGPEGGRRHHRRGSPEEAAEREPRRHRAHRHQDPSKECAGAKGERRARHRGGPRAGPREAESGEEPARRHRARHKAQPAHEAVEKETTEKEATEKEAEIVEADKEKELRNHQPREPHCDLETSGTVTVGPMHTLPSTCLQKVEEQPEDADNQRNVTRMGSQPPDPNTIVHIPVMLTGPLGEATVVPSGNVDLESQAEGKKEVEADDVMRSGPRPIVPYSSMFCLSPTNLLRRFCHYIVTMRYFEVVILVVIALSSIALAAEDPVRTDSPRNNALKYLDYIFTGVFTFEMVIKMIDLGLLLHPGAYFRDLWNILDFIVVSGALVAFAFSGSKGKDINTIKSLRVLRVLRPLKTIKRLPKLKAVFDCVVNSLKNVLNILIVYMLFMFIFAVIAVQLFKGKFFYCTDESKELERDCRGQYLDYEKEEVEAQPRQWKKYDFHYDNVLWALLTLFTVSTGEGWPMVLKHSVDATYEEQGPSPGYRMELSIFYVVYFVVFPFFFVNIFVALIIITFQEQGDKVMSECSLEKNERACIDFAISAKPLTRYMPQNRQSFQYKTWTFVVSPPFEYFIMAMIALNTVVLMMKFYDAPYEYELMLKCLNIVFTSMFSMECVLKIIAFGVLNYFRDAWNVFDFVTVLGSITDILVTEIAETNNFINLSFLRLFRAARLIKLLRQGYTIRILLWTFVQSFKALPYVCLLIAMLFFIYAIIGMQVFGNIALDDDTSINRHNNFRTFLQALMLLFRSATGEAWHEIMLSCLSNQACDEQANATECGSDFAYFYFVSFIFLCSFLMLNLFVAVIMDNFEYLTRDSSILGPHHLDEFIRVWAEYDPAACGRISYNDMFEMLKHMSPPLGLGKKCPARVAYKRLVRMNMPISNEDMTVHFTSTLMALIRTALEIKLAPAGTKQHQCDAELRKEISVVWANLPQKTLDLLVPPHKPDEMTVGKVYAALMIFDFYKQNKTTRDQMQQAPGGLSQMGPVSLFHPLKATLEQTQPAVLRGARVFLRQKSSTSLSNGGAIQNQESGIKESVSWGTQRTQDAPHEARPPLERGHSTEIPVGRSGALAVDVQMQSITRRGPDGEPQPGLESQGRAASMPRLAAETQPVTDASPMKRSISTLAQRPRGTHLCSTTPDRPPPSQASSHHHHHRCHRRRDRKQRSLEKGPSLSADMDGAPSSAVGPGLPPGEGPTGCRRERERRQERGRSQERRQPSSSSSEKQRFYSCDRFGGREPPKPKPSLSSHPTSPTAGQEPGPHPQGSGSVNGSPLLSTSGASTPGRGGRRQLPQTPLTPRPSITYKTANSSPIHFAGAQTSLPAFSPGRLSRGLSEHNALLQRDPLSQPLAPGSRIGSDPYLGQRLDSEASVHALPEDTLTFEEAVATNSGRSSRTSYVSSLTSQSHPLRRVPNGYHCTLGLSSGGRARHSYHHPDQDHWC
T1 sequence (P54284 whole entry partner): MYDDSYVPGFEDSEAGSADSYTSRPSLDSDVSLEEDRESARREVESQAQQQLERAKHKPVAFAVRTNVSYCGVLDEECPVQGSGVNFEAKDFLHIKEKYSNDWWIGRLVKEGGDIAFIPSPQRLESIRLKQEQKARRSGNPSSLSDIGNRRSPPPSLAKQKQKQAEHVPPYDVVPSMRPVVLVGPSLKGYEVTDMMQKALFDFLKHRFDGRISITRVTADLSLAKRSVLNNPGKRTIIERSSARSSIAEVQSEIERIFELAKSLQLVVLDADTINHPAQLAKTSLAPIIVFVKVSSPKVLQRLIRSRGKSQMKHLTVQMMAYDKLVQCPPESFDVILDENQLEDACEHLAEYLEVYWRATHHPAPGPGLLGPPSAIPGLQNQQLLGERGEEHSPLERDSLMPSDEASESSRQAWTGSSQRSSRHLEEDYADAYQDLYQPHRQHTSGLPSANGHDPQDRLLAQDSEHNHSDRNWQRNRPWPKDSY
T1 sequence (P54289 25-946 partner limits assumed): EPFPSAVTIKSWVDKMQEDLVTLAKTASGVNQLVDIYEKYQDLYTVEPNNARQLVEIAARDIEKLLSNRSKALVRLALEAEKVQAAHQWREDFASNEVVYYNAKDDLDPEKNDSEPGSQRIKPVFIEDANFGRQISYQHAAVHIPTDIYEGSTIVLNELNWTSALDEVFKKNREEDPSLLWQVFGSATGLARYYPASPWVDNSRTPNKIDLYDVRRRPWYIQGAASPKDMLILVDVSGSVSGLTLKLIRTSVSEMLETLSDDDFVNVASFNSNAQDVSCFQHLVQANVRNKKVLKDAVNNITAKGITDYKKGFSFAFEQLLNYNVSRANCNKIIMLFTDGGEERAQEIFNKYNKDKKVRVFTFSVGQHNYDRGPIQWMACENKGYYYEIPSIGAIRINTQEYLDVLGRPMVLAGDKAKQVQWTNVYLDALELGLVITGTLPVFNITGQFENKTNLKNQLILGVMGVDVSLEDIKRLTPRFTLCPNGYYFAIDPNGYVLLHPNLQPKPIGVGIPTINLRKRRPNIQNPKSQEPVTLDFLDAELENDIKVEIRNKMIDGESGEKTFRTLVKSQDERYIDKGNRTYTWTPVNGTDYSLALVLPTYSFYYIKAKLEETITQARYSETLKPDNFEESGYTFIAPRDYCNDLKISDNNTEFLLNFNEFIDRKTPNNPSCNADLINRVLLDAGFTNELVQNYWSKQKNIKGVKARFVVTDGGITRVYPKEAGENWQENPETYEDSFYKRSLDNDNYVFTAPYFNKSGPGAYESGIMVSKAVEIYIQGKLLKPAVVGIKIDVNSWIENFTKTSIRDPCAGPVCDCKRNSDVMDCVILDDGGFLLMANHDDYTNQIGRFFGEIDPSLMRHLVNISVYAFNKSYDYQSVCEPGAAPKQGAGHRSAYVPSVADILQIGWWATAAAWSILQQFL
T1 sequence (P54289 947-1103 partner limits assumed): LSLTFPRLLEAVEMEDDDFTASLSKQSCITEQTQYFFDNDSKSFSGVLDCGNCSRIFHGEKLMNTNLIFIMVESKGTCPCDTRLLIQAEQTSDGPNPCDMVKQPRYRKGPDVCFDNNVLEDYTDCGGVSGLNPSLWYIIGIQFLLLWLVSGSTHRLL

One test addresses T1, CaV2.2 (Homo sapiens, UniProt Q00975).
T1 construct: expressed in transfected cells; host or cells: unnamed doxycycline-inducible cell line
In words: High-throughput CaV2.2/Kir2.3 FLIPR fluorescent assay. The class given is cell-based. The following applies: FLIPR data CaV2.2 (nM), Table 5; Fluo-4 FLIPR; closed or inactivated state not stated. As for the experimental part: Cells were plated in 384-well, clear-bottom, black-walled, poly-D-lysine coated plates (Becton Dickinson, Franklin Lake, N.J.) 2 days prior to use in the FLIPR assay. 100 μL of cells (1.4×10^6 cell/mL) containing doxycyline (Sigma-Aldrich, 1.5 μg/mL; to induce channel expression) were added to each well using a Multidrop (Thermo Scientific, Waltham, Mass.) and were maintained in 5% CO2 incubator at 37° C. On the morning of the assay, cells were transferred to a 5% CO2 incubator at 29° C.
Cells were washed with a wash buffer containing (in mM): 118 NaCl, 18.4 HEPES, 11.7 D-glucose, 2 CaCl2, 0.5 MgSO4, 4.7 KCl, 1.2 KH2PO4, pH adjusted to 7.2 with NaOH. 4.4 μM of the fluorescent indicator dye, Fluo-4 (Invitrogen), prepared in pluronic acid (Sigma-Aldrich), was loaded into the wells and incubated for 45 minutes at 29° C. in 5% CO2. Cells were then rinsed with either a 2 mM KCl closed-state buffer (in mM: 138.5 NaCl, 10 HEPES, 10 D-glucose, 1 CaCl2, and 2 KCl, with the pH adjusted to 7.4 with NaOH) when performing the closed-state assay or 12.5 mM KCl inactivated-state buffer (in mM: 128 NaCl, 10 HEPES, 10 D-glucose, 1 CaCl2, and 12.5 mM KCl, with the pH adjusted to 7.4 with NaOH) when performing the inactivated-state assay.
Calcium entry was evoked with an addition of 130 mM KCl stimulation buffer (in mM: 10.5 NaCl, 10 HEPES, 10 D-glucose, 1 CaCl2, and 130 KCl, with the pH adjusted to 7.4 with NaOH) for both the closed-state or inactivated-state assay. A change in the Fluo-4 fluorescence signal was assessed using FLIPR^TETRA™ instrument (Molecular Devices, Sunnyvale, Calif.) for 3 minutes following the elevation of extracellular KCl using an illumination wavelength of 470-495 nm with emissions recorded at 515-575 nm.
Concentration-dependent response curves were obtained by comparing the fluorescence signal in the presence of compound and fitted with a logistic function (1) to obtain the concentration that inhibited 50% (IC50) of the RLU signal using OriginPro v.7.5 software (OriginLab, Northampton, Mass.).
To assess the quality of the FLIPR assays the Z-factor (2) was used to quantify the suitability of the assay conditions using the following equation: […]
Data are expressed as mean and standard deviation (SD).
In the case of `CC(C)(C(=O)NCCC(F)(F)F)S(=O)(=O)c1cccc(C(F)(F)F)c1` [Compound 125, 2-methyl-2-((3-(trifluoromethyl)phenyl)sulfonyl)-N-(3,3,3-trifluoropropyl)propanamide], the IC50 was found to be 10000 nM.

The test is the same for the next values; noted with them: Table 4; Fluo-4 FLIPR; closed or inactivated state not stated; read-out: FLIPR data CaV2.2.
As to `O=C(CCC(F)(F)F)NCc1ccc(S(=O)(=O)c2cccc(C(F)(F)F)c2)cn1` [Compound 105, 4,4,4-trifluoro-N-((5-((3-(trifluoromethyl)phenyl)sulfonyl)pyridin-2-yl)methyl)butanamide], the IC50 was 2510 nM.

Regarding `O=C(NCc1ccc(S(=O)(=O)c2cccc(C(F)(F)F)c2)cn1)[C@H]1C[C@@H](O)CN1` [Compound 106, (2R,4R)-4-hydroxy-N-((5-((3-(trifluoromethyl)phenyl)sulfonyl)pyridin-2-yl)methyl)pyrrolidine-2-carboxamide], the IC50 was 5850 nM.

Consider `O=C(NCc1ccc(S(=O)(=O)c2cccc(C(F)(F)F)c2)cn1)[C@H]1CCCN1` [Compound 108, (R)-N-((5-((3-(trifluoromethyl)phenyl)sulfonyl)pyridin-2-yl)methyl)pyrrolidine-2-carboxamide], for which the IC50 came to 2600 nM.

On to `CS(=O)(=O)c1nc(C(F)(F)F)ccc1C(=O)NCc1cc(S(=O)(=O)c2cccc(C(F)(F)F)c2)ccn1` [Compound 110, 2-(methylsulfonyl)-6-(trifluoromethyl)-N-((4-((3-(trifluoromethyl)phenyl)sulfonyl)pyridin-2-yl)methyl)nicotinamide], for which the IC50 was found to be 2210 nM.

As for `O=C(NCc1cc(S(=O)(=O)c2cccc(C(F)(F)F)c2)ccn1)c1ccnn1CC(F)(F)F` [Compound 112, 1-(2,2,2-trifluoroethyl)-N-((4-((3-(trifluoromethyl)phenyl)sulfonyl)pyridin-2-yl)methyl)-1H-pyrazole-5-carboxamide], the IC50 came out at 1030 nM.

As for `O=C(NCc1cc(S(=O)(=O)c2cccc(C(F)(F)F)c2)ccn1)c1ccnc(C(F)(F)F)n1` [Compound 113, 2-(trifluoromethyl)-N-((4-((3-(trifluoromethyl)phenyl)sulfonyl)pyridin-2-yl)methyl)pyrimidine-4-carboxamide], the IC50 was 1390 nM.

As to `O=C(CCC(F)(F)F)NCc1cc(S(=O)(=O)c2cccc(C(F)(F)F)c2)ccn1` [Compound 114, 4,4,4-trifluoro-N-((4-((3-(trifluoromethyl)phenyl)sulfonyl)pyridin-2-yl)methyl)butanamide], the IC50 was found to be 3320 nM.

For `O=C(NCc1cc(S(=O)(=O)c2cccc(C(F)(F)F)c2)ccn1)c1cn2cc(C(F)(F)F)ccc2n1` [Compound 116, 6-(trifluoromethyl)-N-((4-((3-(trifluoromethyl)phenyl)sulfonyl)pyridin-2-yl)methyl)imidazo[1,2-a]pyridine-2-carboxamide], the IC50 came out at 1170 nM.

The test is the same for the next values; noted with them: Table 5; Fluo-4 FLIPR; closed or inactivated state not stated; read-out: FLIPR data CaV2.2.
Regarding `CC(C)(NC(=O)C(C)(C)S(=O)(=O)c1cccc(C(F)(F)F)c1)c1ccccc1` [Compound 126, 2-methyl-N-(2-phenylpropan-2-yl)-2-((3-(trifluoromethyl)phenyl)sulfonyl)propanamide], the IC50 was 4310 nM.

On to `COc1cc(CCNC(=O)C(C)(C)S(=O)(=O)c2cccc(C(F)(F)F)c2)ccc1O` [Compound 139, N-(4-hydroxy-3-methoxyphenethyl)-2-methyl-2-((3-(trifluoromethyl)phenyl)sulfonyl)propanamide], for which the IC50 stood at 1220 nM.

For the compound `CC(C)(C(=O)NCC(O)c1ccccc1Cl)S(=O)(=O)c1cccc(C(F)(F)F)c1` (stereo not shown) [Compound 141, N-(2-(2-chlorophenyl)-2-hydroxyethyl)-2-methyl-2-((3-(trifluoromethyl)phenyl)sulfonyl)propanamide], the IC50 amounted to 1090 nM.

As to `COc1cc(OC)cc(C(O)CNC(=O)C(C)(C)S(=O)(=O)c2cccc(C(F)(F)F)c2)c1` (stereo not shown) [Compound 142, N-(2-(3,5-dimethoxyphenyl)-2-hydroxyethyl)-2-methyl-2-((3-(trifluoromethyl)phenyl)sulfonyl)propanamide], the IC50 was 440 nM.

Take `CC(C)(C(=O)Nc1ccc(Oc2ccncc2)cc1)S(=O)(=O)c1cccc(C(F)(F)F)c1` [Compound 143, 2-methyl-N-(4-(pyridin-4-yloxy)phenyl)-2-((3-(trifluoromethyl)phenyl)sulfonyl)propanamide]: the IC50 turned out to be 10000 nM.

On to `CC(C)(C)Oc1ccc(CNC(=O)C(C)(C)S(=O)(=O)c2cccc(C(F)(F)F)c2)cc1` [Compound 144, N-(4-(tert-butoxy)benzyl)-2-methyl-2-((3-(trifluoromethyl)phenyl)sulfonyl)propanamide], for which the IC50 came out at 360 nM.

As for `CC(C)(C(=O)N1Cc2ccncc2C1)S(=O)(=O)c1cccc(C(F)(F)F)c1` [Compound 148, 2-methyl-1-(1H-pyrrolo[3,4-c]pyridin-2(3H)-yl)-2-((3-(trifluoromethyl)phenyl)sulfonyl)propan-1-one], the IC50 came to 10000 nM.

Consider `CC(C)(CC(=O)NCCC(F)(F)F)S(=O)(=O)c1cccc(C(F)(F)F)c1` [Compound 151, 3-methyl-3-((3-(trifluoromethyl)phenyl)sulfonyl)-N-(3,3,3-trifluoropropyl)butanamide], for which the IC50 worked out at 8230 nM.

As to `CC(C)(NC(=O)CC(C)(C)S(=O)(=O)c1cccc(C(F)(F)F)c1)c1ccccc1` [Compound 152, 3-methyl-N-(2-phenylpropan-2-yl)-3-((3-(trifluoromethyl)phenyl)sulfonyl)butanamide], the IC50 was determined as 4240 nM.

As to `COc1cc(CCNC(=O)CC(C)(C)S(=O)(=O)c2cccc(C(F)(F)F)c2)ccc1O` [Compound 153, N-(4-hydroxy-3-methoxyphenetnyl)-3-methyl-3-((3-(trifluoromethyl)phenyl)sulfonyl)butanamide], the IC50 amounted to 1220 nM.

As for `CC(C)(CNC(=O)c1ccc(C(F)(F)F)nc1S(C)(=O)=O)S(=O)(=O)c1cccc(C(F)(F)F)c1` [Compound 155, N-(2-methyl-2-((3-(trifluoromethyl)phenyl)sulfonyl)propyl)-2-(methylsulfonyl)-6-(trifluoromethyl)nicotinamide], the IC50 stood at 1360 nM.

Regarding `CC(C)(CNC(=O)c1ncc(C(F)(F)F)cc1S(C)(=O)=O)S(=O)(=O)c1cccc(C(F)(F)F)c1` [Compound 156, N-(2-methyl-2-((3-(trifluoromethyl)phenyl)sulfonyl)propyl)-3-(methylsulfonyl)-5-(trifluoromethyl)picolinamide], the IC50 was 1080 nM.

As to `CC(C)(CNC(=O)c1ccc(F)cc1)S(=O)(=O)c1cccc(C(F)(F)F)c1` [Compound 157, 4-fluoro-N-(2-methyl-2-((3-(trifluoromethyl)phenyl)sulfonyl)propyl)benzamide], the IC50 stood at 5370 nM.

`CC(C)(CNC(=O)c1ccc(S(C)(=O)=O)cc1Cl)S(=O)(=O)c1cccc(C(F)(F)F)c1` [Compound 158, 2-chloro-N-(2-methyl-2-((3-(trifluoromethyl)phenyl)sulfonyl)propyl)-4-(methylsulfonyl)benzamide]: the IC50 came to 2920 nM.

On to `CC(C)(CNC(=O)c1ccc(F)cc1Cl)S(=O)(=O)c1cccc(C(F)(F)F)c1` [Compound 159, 2-chloro-4-fluoro-N-(2-methyl-2-((3-(trifluoromethyl)phenyl)sulfonyl)propyl)benzamide], for which the IC50 came to 1320 nM.

For the compound `CCOc1ncccc1C(=O)NCC(C)(C)S(=O)(=O)c1cccc(C(F)(F)F)c1` [Compound 162, 2-ethoxy-N-(2-methyl-2-((3-(trifluoromethyl)phenyl)sulfonyl)propyl)nicotinamide], the IC50 came out at 2630 nM.
